{"source": "ChEMBL document CHEMBL1201862", "about": "“PubChem BioAssay data set” (2004)", "key": {"[1]": {"tested_on": "BJ", "experiment": "cytotoxicity toward Ras-transformed BJeLR fibroblasts, dose response, cell-based, alamar blue fluorescence, cherrypicked samples (AID 2631)", "type": "functional", "conditions": "Homo sapiens"}, "[2]": {"tested_on": "HEK293", "experiment": "cells", "type": "functional, cell-based", "conditions": "Homo sapiens"}, "[3]": {"target": "Glucose-6-phosphate 1-dehydrogenase (Homo sapiens, UniProt P11413)", "sequence (P11413 whole entry)": "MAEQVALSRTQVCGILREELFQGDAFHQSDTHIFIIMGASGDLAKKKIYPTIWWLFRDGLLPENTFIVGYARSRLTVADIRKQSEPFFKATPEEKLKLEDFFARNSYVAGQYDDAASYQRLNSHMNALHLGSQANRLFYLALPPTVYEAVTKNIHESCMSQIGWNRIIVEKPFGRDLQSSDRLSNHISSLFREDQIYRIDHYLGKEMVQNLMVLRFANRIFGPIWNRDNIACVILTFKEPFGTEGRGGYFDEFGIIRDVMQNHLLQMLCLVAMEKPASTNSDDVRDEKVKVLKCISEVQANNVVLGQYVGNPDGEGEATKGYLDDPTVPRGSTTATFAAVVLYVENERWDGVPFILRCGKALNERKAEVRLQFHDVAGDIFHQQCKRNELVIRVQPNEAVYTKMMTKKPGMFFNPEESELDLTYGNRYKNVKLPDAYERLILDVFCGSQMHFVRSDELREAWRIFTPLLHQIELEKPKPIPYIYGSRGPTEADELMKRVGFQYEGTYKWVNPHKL", "experiment": "human G6PD enzyme inhibitors, dose response, selectivity assay for P. falciparum G6PD inhibitor project, biochemical, fluorescence (AID 504792)", "type": "functional"}, "[4]": {"tested_on": "BJ", "experiment": "cytotoxicity toward BJ-TERT-LT-ST fibroblasts, dose response, cell-based, RAS-independent, luminescence (AID 1935);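 further: BJ fibroblasts immortalized with TERT plus LT and ST oncogenes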", "type": "functional", "conditions": "Homo sapiens"}, "[5]": {"target": "Beta-galactosidase (Escherichia coli, UniProt Q8VNN2)", "experiment": "PubChem AID 485352", "type": "functional"}, "[6]": {"tested_on": "Streptococcus", "experiment": "Group A Streptococcus viability loss, dose response, counter-screen for streptokinase expression inhibitor project, luminescence, BacTiterGlo (AID 1915);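 further: potency for reduction of bacterial viability or growth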", "type": "functional, organism-based"}, "[7]": {"tested_on": "HEK293", "experiment": "NOD2 signaling inhibitors in MDP-stimulated cells, cell-based, uHTS, luminescence (AID 2001)", "type": "functional", "conditions": "Homo sapiens"}, "[8]": {"tested_on": "HEK293", "experiment": "cells", "type": "functional, cell-based", "conditions": "Homo sapiens", "remark": "listed apart in the source"}, "[9]": {"experiment": "Luminescence-based dose response cell-based high throughput screening assay for cytotoxic compounds using the IEC-6 intestinal epithelial cell line. [Related pubchem assays: 1858 (Summary AID.), 1825 (Counterscreen.), 1907 (Confirmation screen.)]", "type": "functional"}, "[10]": {"tested_on": "HEK293", "experiment": "SAR Analysis of small molecule inhibitors of both B-cell and T-cell specific antigen receptor-induced NF-kB activation in a HEK-293T cell line using a luminescence assay. [Related pubchem assays (depositor defined):AID435003, AID435022, AID465, AID489019, AID489029]", "type": "functional, cell-based", "conditions": "Homo sapiens"}, "[11]": {"experiment": "IGROV1 ovarian cancer cell cytotoxicity, dose response, PAX8 inhibitor project, plate reader, dry powder samples (AID 743043)", "type": "functional, cell-based", "conditions": "IGROV-1"}, "[12]": {"experiment": "PAX2 cell-based inhibition, dose response, selectivity assay for PAX8 inhibitor project, plate reader, dry powder samples (AID 743048);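 further: HEK293 cells carrying a WT1 promoter luciferase reporter driven by expressed Pax2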", "type": "functional"}, "[13]": {"experiment": "cytotoxicity in COV434 cells, dose response, cytotoxicity control for PAX8 inhibitor project, cell-based, plate reader, dry powder, SA7 (AID 743145)", "type": "functional"}, "[14]": {"tested_on": "HEK293", "experiment": "NOD1 signaling inhibitors, primary screen, cell-based, luminescence, uHTS (AID 1578)", "type": "functional", "conditions": "Homo sapiens"}, "[15]": {"experiment": "cytotoxicity dependent on PAX8, dose response, cell-based, plate reader, dry powder (AID 743049)", "type": "functional"}, "[16]": {"experiment": "cytotoxicity toward DRD oncogenic fibroblasts, dose response, cell-based, non-viral oncogenic, luminescence (AID 1934)", "type": "functional", "conditions": "Homo sapiens"}, "[17]": {"experiment": "NIH:OVCAR-3 ovarian cancer cell cytotoxicity, dose response, PAX8 inhibitor project, plate reader, dry powder samples (AID 743044)", "type": "functional, cell-based"}, "[18]": {"tested_on": "Vero", "experiment": "host cell cytotoxicity of antiviral hits, dose response, cytotoxicity control for West Nile virus antiviral project, secondary assay (AID 1650)", "type": "functional", "conditions": "Chlorocebus sabaeus"}, "[19]": {"target": "T1, Streptokinase A (Streptococcus pyogenes serotype M1, UniProt P10520)", "T1 sequence (P10520 whole entry)": "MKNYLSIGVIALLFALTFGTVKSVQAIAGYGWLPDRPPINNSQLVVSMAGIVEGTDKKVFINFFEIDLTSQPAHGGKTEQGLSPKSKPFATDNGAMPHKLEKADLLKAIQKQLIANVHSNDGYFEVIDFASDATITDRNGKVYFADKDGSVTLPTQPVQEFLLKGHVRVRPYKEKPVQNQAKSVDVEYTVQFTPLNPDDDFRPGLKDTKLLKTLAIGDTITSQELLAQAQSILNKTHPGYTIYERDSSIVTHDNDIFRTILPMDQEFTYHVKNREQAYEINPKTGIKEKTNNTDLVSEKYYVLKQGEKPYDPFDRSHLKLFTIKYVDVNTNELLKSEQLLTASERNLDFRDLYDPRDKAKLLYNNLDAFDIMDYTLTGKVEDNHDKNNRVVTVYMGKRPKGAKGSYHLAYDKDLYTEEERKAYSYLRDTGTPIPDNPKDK", "experiment": "S. pyogenes streptokinase expression inhibitors, potency, dose response, plasminogen activation absorbance, OD405 (AID 1914);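 further: secreted streptokinase activity via plasminogen activation per viability signal from cell pellet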", "type": "functional, Streptococcus pyogenes M1 GAS"}, "[20]": {"tested_on": "BJ", "experiment": "cytotoxicity toward BJ-TERT fibroblasts, dose response, cell-based, RAS-independent, luminescence (AID 1933)", "type": "functional", "conditions": "Homo sapiens"}, "[21]": {"tested_on": "BJ", "experiment": "cells", "type": "functional, cell-based", "conditions": "Homo sapiens"}, "[22]": {"tested_on": "HEK293", "experiment": "cytotoxicity in HEK293T NF-kB-Luc cells, SAR follow-up, cytotoxicity control for NF-kB activator project, cell-based, resazurin fluorescence (AID 493251)", "type": "functional", "conditions": "Homo sapiens"}, "[23]": {"experiment": "PAX5 activity inhibitors, dose response, selectivity assay for PAX8 inhibitor project, cell-based, plate reader, dry powder samples (AID 743047);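 further: HEK293 cells carrying a Pax5 driven CD19 promoter luciferase reporter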", "type": "functional"}, "[24]": {"experiment": "cytotoxicity in OV-90 ovarian cancer cells, dose response, PAX8 inhibitor project, cell-based, plate reader, dry powder, SA8 (AID 743149)", "type": "functional"}, "[25]": {"target": "Paired box protein Pax-8 (Homo sapiens, UniProt Q06710)", "sequence (Q06710 whole entry)": "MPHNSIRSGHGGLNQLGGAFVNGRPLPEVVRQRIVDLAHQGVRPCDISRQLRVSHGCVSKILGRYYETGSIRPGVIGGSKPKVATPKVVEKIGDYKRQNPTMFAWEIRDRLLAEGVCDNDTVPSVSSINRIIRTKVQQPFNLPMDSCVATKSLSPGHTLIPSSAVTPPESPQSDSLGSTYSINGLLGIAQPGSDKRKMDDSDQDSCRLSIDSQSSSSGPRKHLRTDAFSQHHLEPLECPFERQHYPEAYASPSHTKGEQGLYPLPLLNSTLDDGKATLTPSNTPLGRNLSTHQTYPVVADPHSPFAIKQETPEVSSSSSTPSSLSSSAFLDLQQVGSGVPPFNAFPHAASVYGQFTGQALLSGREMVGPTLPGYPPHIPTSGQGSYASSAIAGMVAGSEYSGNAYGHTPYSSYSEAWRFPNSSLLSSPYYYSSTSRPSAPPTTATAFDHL", "experiment": "inhibitors of PAX8-driven TPO luciferase reporter, dose response, RMG-I cells, cherry-pick (AID 687027);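 further: luciferase reporter driven by Pax8 target thyroperoxidase promoter measured by SteadyGlo luminescence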", "type": "functional, cell-based"}, "[26]": {"experiment": "cytotoxicity in OVCAR4 cells, dose response, cytotoxicity control for PAX8 inhibitor project, cell-based, plate reader, dry powder, SA11 (AID 743150)", "type": "functional", "conditions": "OVCAR-4"}, "[27]": {"tested_on": "Jurkat", "experiment": "SAR Analysis of small molecule inhibitors of both B-cell and T-cell specific antigen receptor-induced NF-kB activation in a Jurkat cell line using a luminescence assay. [Related pubchem assays (depositor defined):AID435003, AID435022, AID465, AID489029]", "type": "functional, cell-based", "conditions": "Homo sapiens"}, "[28]": {"target": "Type-1 angiotensin II receptor (Homo sapiens, UniProt P30556)", "sequence (P30556 whole entry)": "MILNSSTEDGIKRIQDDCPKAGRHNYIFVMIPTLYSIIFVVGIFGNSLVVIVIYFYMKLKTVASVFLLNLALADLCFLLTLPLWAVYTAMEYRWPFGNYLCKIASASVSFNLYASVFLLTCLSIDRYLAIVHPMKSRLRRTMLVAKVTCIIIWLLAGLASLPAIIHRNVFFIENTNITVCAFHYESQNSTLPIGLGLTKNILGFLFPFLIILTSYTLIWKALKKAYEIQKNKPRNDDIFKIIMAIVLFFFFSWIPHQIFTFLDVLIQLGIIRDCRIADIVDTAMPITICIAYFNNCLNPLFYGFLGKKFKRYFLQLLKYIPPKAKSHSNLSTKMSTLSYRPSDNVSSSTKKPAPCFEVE", "experiment": "AT1 receptor antagonists, dose response, selectivity assay for APJ receptor antagonist project, cell-based, uHTS hits (AID 463214)", "type": "functional"}, "[29]": {"target": "Nucleotide-binding oligomerization domain-containing protein 2 (Homo sapiens, UniProt Q9HC29)", "experiment": "NOD2 signaling inhibitors, cell-based, luminescence, uHTS, HEK293 (AID 1566)", "type": "functional"}, "[30]": {"tested_on": "HEK293", "experiment": "cells", "type": "functional, cell-based", "conditions": "Homo sapiens", "remark": "listed apart in the source"}, "[31]": {"tested_on": "Streptococcus sp. 'group A'", "experiment": "growth inhibition of control SK(-) GAS strain, dose response, counter-screen for streptokinase expression inhibitor project, luminescence, kanamycin, BacTiterGlo, confirmation (AID 1900)", "type": "functional, organism-based"}, "[32]": {"target": "T2, Fatty acid synthase (Homo sapiens, UniProt P49327)", "T2 sequence (P49327 whole entry, the tested form may be a part)": "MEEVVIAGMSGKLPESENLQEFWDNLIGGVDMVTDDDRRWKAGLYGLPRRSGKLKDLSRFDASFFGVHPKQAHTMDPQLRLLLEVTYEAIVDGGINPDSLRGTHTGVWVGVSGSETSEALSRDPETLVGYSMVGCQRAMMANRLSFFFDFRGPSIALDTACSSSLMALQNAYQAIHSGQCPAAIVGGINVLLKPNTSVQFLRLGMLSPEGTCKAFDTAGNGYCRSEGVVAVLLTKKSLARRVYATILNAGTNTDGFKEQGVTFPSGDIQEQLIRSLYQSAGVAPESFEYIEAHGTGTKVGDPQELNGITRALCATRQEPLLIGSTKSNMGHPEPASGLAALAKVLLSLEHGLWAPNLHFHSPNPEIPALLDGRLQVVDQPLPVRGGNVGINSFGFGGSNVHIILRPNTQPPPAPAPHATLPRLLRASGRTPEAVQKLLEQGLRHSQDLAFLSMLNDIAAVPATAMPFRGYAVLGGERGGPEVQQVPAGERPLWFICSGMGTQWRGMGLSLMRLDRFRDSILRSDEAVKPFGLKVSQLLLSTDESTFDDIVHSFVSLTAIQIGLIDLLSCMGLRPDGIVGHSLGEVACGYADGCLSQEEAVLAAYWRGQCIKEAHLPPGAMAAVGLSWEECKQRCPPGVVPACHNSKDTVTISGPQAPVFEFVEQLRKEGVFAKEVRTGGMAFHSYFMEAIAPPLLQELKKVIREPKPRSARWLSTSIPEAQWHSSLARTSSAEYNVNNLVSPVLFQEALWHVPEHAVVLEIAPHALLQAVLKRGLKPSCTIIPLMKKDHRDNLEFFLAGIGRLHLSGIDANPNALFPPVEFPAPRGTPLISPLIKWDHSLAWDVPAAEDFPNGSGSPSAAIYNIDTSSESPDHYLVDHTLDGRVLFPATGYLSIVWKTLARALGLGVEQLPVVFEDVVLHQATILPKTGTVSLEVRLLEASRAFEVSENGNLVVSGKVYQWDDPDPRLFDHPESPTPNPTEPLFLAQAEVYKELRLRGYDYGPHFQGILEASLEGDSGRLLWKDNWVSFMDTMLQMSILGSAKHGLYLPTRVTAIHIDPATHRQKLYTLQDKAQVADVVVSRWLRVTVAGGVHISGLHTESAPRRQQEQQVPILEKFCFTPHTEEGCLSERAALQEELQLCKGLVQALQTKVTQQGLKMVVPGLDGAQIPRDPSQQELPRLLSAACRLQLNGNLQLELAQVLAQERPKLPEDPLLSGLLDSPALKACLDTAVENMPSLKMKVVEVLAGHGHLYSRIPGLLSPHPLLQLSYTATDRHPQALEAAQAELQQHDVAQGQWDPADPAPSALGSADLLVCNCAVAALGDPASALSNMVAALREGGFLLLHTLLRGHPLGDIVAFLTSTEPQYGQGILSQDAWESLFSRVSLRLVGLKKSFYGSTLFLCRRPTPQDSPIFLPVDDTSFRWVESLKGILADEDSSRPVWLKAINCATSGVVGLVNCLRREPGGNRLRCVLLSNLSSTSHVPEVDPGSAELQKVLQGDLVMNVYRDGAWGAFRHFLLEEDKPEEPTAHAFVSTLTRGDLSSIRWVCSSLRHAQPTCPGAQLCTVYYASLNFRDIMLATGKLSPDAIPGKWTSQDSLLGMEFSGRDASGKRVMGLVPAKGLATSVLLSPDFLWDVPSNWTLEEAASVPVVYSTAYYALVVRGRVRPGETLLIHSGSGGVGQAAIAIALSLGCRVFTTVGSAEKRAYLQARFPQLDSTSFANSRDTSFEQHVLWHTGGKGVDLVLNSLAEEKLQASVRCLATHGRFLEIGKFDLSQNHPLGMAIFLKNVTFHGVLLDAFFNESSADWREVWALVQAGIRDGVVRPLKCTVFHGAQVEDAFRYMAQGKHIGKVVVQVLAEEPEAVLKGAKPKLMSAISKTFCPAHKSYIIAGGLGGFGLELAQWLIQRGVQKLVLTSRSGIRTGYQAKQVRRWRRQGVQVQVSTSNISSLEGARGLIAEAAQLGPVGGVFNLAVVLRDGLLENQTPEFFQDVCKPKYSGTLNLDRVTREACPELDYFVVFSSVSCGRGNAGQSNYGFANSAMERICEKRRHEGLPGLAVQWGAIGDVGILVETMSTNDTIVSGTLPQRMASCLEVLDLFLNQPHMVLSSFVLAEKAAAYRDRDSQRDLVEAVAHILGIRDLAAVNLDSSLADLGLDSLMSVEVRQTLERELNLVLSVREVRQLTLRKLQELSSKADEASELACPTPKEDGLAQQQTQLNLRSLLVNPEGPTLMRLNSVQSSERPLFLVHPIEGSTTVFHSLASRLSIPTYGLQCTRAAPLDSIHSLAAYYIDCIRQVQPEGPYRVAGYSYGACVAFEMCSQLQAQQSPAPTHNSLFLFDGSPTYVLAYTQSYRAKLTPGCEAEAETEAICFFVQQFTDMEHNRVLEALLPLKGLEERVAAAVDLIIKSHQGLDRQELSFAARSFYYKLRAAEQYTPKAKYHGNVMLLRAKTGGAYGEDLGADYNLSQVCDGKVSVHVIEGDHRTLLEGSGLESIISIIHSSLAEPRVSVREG", "experiment": "FAS thioesterase domain inhibitors, dose response, biochemical, kinetic fluorescence intensity (AID 624326);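 further: rate of fluorescence rise from hydrolysis of a fluorogenic O-methyl fluorescein ester substrate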", "type": "functional"}, "[33]": {"target": "T2, Fatty acid synthase", "experiment": "FAS thioesterase domain inhibitors, dose response, biochemical, endpoint fluorescence intensity, uHTS hits (AID 624327);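 further: fluorescence from hydrolysis of an O-methyl fluorescein acyl ester substrate by the enzyme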", "type": "functional"}, "[34]": {"target": "Apoptotic protease-activating factor 1 (Homo sapiens, UniProt O14727)", "sequence (O14727 whole entry)": "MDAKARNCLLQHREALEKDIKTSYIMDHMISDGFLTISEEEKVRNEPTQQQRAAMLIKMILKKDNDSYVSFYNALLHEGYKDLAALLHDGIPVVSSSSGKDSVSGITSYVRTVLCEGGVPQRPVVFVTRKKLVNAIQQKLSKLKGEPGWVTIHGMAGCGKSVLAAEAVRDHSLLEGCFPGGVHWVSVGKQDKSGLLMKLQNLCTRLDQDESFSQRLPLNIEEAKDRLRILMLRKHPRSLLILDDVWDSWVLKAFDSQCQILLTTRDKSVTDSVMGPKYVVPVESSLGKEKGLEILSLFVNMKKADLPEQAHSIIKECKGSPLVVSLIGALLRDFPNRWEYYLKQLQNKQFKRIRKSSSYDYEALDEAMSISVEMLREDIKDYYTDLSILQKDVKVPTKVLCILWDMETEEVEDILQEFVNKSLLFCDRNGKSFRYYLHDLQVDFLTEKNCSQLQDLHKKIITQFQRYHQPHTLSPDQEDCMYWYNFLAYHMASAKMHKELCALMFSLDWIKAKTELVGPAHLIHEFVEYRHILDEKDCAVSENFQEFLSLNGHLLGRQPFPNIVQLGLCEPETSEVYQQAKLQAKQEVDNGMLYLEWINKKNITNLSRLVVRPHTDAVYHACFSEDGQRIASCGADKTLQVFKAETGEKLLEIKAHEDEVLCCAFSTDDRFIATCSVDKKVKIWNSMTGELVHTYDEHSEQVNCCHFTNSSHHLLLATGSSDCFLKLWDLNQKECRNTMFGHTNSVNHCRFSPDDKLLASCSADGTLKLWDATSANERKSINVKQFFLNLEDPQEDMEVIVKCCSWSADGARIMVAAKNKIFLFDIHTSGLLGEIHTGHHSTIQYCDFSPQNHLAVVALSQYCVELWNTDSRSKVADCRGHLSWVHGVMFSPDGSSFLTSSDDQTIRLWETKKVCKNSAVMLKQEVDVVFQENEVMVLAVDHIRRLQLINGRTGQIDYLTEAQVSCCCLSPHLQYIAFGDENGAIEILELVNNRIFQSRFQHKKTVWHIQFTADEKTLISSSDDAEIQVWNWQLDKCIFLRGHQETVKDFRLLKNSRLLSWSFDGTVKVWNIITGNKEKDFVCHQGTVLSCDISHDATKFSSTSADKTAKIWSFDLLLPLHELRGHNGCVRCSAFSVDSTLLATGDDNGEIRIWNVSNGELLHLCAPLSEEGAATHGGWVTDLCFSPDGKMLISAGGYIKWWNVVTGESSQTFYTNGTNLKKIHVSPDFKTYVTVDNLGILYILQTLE", "type": "functional"}}, "note": "Calls of active or inactive are those of the source.", "data": [{"molecule": "O=S(=O)(Nc1cccc2cccnc12)c1ccccc1", "values": [{"measurement": "EC50", "setting": "[1]", "value": "0.572 µM (active)"}, {"measurement": "IC50", "setting": "[2]", "value": "> 20 µM (inactive)"}, {"measurement": "IC50", "setting": "[3]", "value": "51.9 µM (inactive)"}, {"measurement": "EC50", "setting": "[4]", "value": "> 150 µM (not active)"}, {"measurement": "EC50", "setting": "[5]", "value": "> 40 µM (inactive)"}, {"measurement": "EC50", "setting": "[6]", "value": "12.3 µM (active)"}, {"measurement": "IC50", "setting": "[7]", "value": "1.83 µM (inactive)"}, {"measurement": "IC50", "setting": "[8]", "value": "11.7 µM (active)"}, {"measurement": "IC50", "setting": "[9]", "value": "2.08 µM (active)"}, {"measurement": "IC50", "setting": "[10]", "value": "44.8 µM (inactive)"}, {"measurement": "AC50", "setting": "[11]", "value": "26.3 µM (active)"}, {"measurement": "AC50", "setting": "[12]", "value": "32.4 µM (active)"}, {"measurement": "AC50", "setting": "[13]", "value": "19.3 µM (active)"}, {"measurement": "EC50", "setting": "[14]", "value": "> 20 µM (inactive)"}, {"measurement": "AC50", "setting": "[15]", "value": "20.7 µM (active)"}, {"measurement": "EC50", "setting": "[16]", "value": "34 µM (active)"}, {"measurement": "AC50", "setting": "[17]", "value": "38.9 µM (active)"}, {"measurement": "CC50", "setting": "[18]", "value": "7.94 µM (active)"}, {"measurement": "EC50", "setting": "[19]", "value": "> 150 µM (not active)"}, {"measurement": "EC50", "setting": "[20]", "value": "28.1 µM (active)"}, {"measurement": "EC50", "setting": "[21]", "value": "17.2 µM (active)"}, {"measurement": "IC50", "setting": "[22]", "value": "> 80 µM (inactive)"}, {"measurement": "AC50", "setting": "[23]", "value": "33.2 µM (active)"}, {"measurement": "AC50", "setting": "[24]", "value": "15.3 µM (active)"}, {"measurement": "AC50", "setting": "[25]", "value": "6.46 µM (active)"}, {"measurement": "AC50", "setting": "[26]", "value": "21.4 µM (active)"}, {"measurement": "IC50", "setting": "[27]", "value": "0.89 µM (active)"}, {"measurement": "IC50", "setting": "[28]", "value": "2.75 µM (active)"}, {"measurement": "EC50", "setting": "[29]", "value": "> 20 µM (inactive)"}, {"measurement": "IC50", "setting": "[30]", "value": "2.74 µM (active)"}, {"measurement": "EC50", "setting": "[31]", "value": "3.27 µM (active)"}]}, {"molecule": "CC(C)c1ccc(/C=N/Nc2cc(N3CCOCC3)nc(N3CCOCC3)n2)cc1", "values": [{"measurement": "IC50", "setting": "[32]", "value": "0.379 µM (active)"}, {"measurement": "IC50", "setting": "[33]", "value": "0.752 µM (active)"}, {"measurement": "IC50", "setting": "[34]", "value": "19.1 µM (active)"}]}]}
